Assay: Henry solubility constant Hcp at 298.15 K (mol/(m3 Pa))
Conditions: reference: O’Farrell and Waghorne (2010)

Row | Structure (SMILES) | Henry solubility constant Hcp
1 | CCC(=O)CC [3-pentanone] | 0.21
2 | C1COCOC1 [1,3-dioxane] | 1.8
3 | O=C1CCCC1 [cyclopentanone] | 2.8
4 | CC(=O)C(Cl)Cl [1,1-dichloro-2-propanone] | 0.33
5 | CC(C)=O [propanone] | 0.33
6 | OCC(Cl)Cl [2,2-dichloroethanol] | 0.37
7 | CCO [ethanol] | 2.2
8 | OCC(F)F [2,2-difluoroethanol] | 0.92
9 | COCCOC [1,2-dimethoxyethane] | 2.1
10 | CC(=O)CF [1-fluoro-2-propanone] | 0.46

From Sander's compilation of Henry's law constants (doi:10.1021/je900711h)
